Like-named read-outs stand apart in the source and are kept apart here.
Columns and labels:
[1] = target: T1, human α4β2 neuronal nicotinic receptor (Homo sapiens, UniProt P17787+P43681); assay: α4β2 neuronal nicotinic receptor assay (agonist radioligand, [3H]cytisine); type: binding
T1 construct: host or cells: SH-SY5Y cells (membrane homogenates)
Procedure: Cell membrane homogenates (30 μg protein) were incubated for 120 min at 4° C. with 0.6 nM [3H]cytisine in the absence or presence of the test compound in a buffer containing 50 mM Tris-HCl (pH 7.4), 120 mM NaCl, 5 mM KCl, 2.5 mM CaCl2 and 1 mM MgCl2. Nonspecific binding was determined in the presence of 10 μM nicotine bitartrate. Following incubation, the samples were filtered rapidly under vacuum through glass fiber filters (GF/B, Packard) presoaked with 0.3% PEI and rinsed several times with ice-cold 50 mM Tris-HCl using a 96-sample cell harvester (Unifilter, Packard).
The filters were dried then counted for radioactivity in a scintillation counter (Topcount, Packard) using a scintillation cocktail (Microscint 0, Packard). The results were expressed as a percent inhibition of the control radioligand specific binding. The standard reference compound was nicotine bitartrate.
A number of example compounds of formula (I) were tested to evaluate their affinity for the human α4β2 neuronal nicotinic receptor expressed in transfected SH-SY5Y cells, determined in a radioligand binding assay.

[2] = target: T2, MTHFD1 recombinant human enzyme (Homo sapiens, UniProt P11586); assay: MTHFD1 inhibition assay (NAD(P)H-Glo luminescence)
T2 sequence (P11586 2-291 limits assumed): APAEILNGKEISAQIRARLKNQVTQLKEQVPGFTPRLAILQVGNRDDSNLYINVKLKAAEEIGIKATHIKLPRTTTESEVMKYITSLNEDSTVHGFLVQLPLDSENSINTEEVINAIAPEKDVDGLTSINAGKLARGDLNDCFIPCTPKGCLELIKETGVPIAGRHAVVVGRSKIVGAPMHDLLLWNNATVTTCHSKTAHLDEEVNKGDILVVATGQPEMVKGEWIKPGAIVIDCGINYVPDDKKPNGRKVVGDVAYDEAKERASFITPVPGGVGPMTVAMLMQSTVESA

[3] = target: T3, MTHFD2 recombinant human enzyme (Homo sapiens, UniProt P13995); assay: MTHFD2 inhibition assay (NAD(P)H-Glo luminescence); conditions: for MTHFD1/MTHFD2 IC50 ratio: selectivity of MTHFD2 inhibition over MTHFD1, band
T3 sequence (P13995 36-350): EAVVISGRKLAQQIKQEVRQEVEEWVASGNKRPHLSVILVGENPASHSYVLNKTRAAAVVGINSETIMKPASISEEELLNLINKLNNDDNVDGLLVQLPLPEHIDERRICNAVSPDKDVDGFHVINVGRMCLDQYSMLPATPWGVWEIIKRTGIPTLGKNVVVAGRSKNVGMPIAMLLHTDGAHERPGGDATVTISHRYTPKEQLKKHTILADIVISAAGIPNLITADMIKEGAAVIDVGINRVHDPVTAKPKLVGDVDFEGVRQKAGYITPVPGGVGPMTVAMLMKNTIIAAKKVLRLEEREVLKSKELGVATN

[4] = tested on: human CD4+ T cells; assay: Human CD4+ T-cell proliferation assay (CFSE, CD3/28 beads); conditions: read-out: Proliferation IC50
[5] = transfected SH-SY5Y cell membranes, 0.6 nM [3H]cytisine, band
[6] = MTHFD1 IC50, recombinant human enzyme 200 nM, NADP, band

T1 sequence (P43681 29-627 limits assumed): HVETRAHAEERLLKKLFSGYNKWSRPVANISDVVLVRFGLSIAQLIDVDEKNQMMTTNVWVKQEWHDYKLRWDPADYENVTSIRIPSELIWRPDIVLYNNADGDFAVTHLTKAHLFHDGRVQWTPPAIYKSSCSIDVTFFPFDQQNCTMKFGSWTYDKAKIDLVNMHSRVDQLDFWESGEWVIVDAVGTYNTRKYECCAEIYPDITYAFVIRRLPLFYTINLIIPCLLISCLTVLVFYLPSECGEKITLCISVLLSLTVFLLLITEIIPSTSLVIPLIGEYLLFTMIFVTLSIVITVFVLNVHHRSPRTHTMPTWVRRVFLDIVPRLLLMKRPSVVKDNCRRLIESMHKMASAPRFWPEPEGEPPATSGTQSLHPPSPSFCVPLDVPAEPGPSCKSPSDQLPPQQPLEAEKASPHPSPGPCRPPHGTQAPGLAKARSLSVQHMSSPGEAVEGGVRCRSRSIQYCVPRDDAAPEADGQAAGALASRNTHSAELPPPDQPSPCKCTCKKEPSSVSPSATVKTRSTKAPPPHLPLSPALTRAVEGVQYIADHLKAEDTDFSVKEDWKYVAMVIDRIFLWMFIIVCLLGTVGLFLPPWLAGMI
T1 sequence (P17787 26-502): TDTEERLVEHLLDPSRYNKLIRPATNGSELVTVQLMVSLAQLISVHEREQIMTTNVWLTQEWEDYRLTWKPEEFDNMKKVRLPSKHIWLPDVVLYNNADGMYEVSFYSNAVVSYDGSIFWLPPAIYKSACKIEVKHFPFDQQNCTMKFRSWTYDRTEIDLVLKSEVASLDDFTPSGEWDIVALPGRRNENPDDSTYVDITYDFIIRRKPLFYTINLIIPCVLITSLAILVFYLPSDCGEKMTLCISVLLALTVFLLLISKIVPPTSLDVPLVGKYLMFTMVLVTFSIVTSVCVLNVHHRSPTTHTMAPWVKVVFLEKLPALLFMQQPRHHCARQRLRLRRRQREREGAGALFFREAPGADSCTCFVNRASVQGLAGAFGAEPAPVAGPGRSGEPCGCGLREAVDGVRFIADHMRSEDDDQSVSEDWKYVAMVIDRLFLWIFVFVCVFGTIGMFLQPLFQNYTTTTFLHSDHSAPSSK

| SMILES | IC50 [1, 5] [nM] | IC50 [2, 6] [nM] | IC50 [3] [nM] | MTHFD1/MTHFD2 IC50 ratio [3] | IC50 [4] [nM] | IC50 [1] [nM] | IC50 ([2]; MTHFD1 IC50, specific value, average of multiple repeats) [nM] | IC50 ([3]; MTHFD2 IC50, recombinant human enzyme 40 nM, NAD+, band) [nM] | IC50 ([3]; MTHFD2 IC50, specific value, average of multiple repeats) [nM] |
| --- | --- | --- | --- | --- | --- | --- | --- | --- | --- |
| COC[C@H]1CN(c2cc(C)c3c4c(c(=O)oc3c2C)CN(C(=O)c2ccc(C(=O)NS(=O)(=O)N3CCCC3)c(OC3CCC3)c2)CC4)CCN1C [Example 1, (R)-2-cyclobutoxy-4-(8-(3-(methoxymethyl)-4-methylpiperazin-1-yl)-7,10-dimethyl-5-oxo-1,3,4,5-tetrahydro-2H-chromeno[3,4-c]pyridine-3-carbonyl)-N-(pyrrolidin-1-ylsulfonyl)benzamide] | 2000 to 20000 | 100 to 1000 | 100 to 1000 | F (<3) | 1 to 10 | – | – | – | – |
| COC[C@H]1CN(c2cc(C)c3c4c(c(=O)oc3c2C)CN(C(=O)c2ccc(C(=O)NS(=O)(=O)C3(C)CC3)c(OC3CCC3)c2)CC4)CCN1C [Example 2, (R)-2-cyclobutoxy-4-(8-(3-(methoxymethyl)-4-methylpiperazin-1-yl)-7,10-dimethyl-5-oxo-1,3,4,5-tetrahydro-2H-chromeno[3,4-c]pyridine-3-carbonyl)-N-((1-methylcyclopropyl)sulfonyl)benzamide] | 20000 to 100000 | 100 to 1000 | 10 to 100 | G (^ 3 to 9.0) | – | – | – | – | – |
| COC[C@H]1CN(c2cc(C)c3c4c(c(=O)oc3c2C)CN(C(=O)c2ccc(C(=O)NS(=O)(=O)N3CCCC3)c(OC3CCC3)c2F)CC4)CCN1C [Example 3, (R)-2-cyclobutoxy-3-fluoro-4-(8-(3-(methoxymethyl)-4-methylpiperazin-1-yl)-7,10-dimethyl-5-oxo-1,3,4,5-tetrahydro-2H-chromeno[3,4-c]pyridine-3-carbonyl)-N-(pyrrolidin-1-ylsulfonyl)benzamide] | 20000 to 100000 | 10 to 100 | 10 to 100 | F (<3) | 1 to 10 | – | – | – | – |
| COC[C@H]1CN(c2cc(C)c3c4c(c(=O)oc3c2C)CN(C(=O)c2ccc(C(=O)NS(=O)(=O)N3CCCC3)c(OC3CCCC3)c2F)CC4)CCN1C [Example 4, (R)-2-(cyclopentyloxy)-3-fluoro-4-(8-(3-(methoxymethyl)-4-methylpiperazin-1-yl)-7,10-dimethyl-5-oxo-1,3,4,5-tetrahydro-2H-chromeno[3,4-c]pyridine-3-carbonyl)-N-(pyrrolidin-1-ylsulfonyl)benzamide] | 20000 to 100000 | 1 to 10 | 1 to 10 | F (<3) | 1 to 10 | – | – | – | – |
| COC[C@H]1CN(c2ccc3c4c(c(=O)oc3c2C)CN(C(=O)c2ccc(C(=O)NS(=O)(=O)N3CCCC3)c(OC3CCCC3)c2F)CC4)CCN1C [Example 12, (R)-2-(cyclopentyloxy)-3-fluoro-4-(8-(3-(methoxymethyl)-4-methylpiperazin-1-yl)-7-methyl-5-oxo-1,3,4,5-tetrahydro-2H-chromeno[3,4-c]pyridine-3-carbonyl)-N-(pyrrolidin-1-ylsulfonyl)benzamide] | > 100000 | 1 to 10 | 1 to 10 | F (<3) | – | – | – | – | – |
| COC[C@H]1CN(c2ccc3c4c(c(=O)oc3c2C)CN(C(=O)c2ccc(C(=O)NS(=O)(=O)N(C)C)c(N3CCCC3)c2)CC4)CCN1C [Example 18, (R)-N-(N,N-dimethylsulfamoyl)-4-(8-(3-(methoxymethyl)-4-methylpiperazin-1-yl)-7-methyl-5-oxo-1,3,4,5-tetrahydro-2H-chromeno[3,4-c]pyridine-3-carbonyl)-2-(pyrrolidin-1-yl)benzamide] | > 100000 | 10 to 100 | 1 to 10 | G (^ 3 to 9.0) | – | – | – | – | – |
| COC[C@H]1CN(c2cc(C)c3c4c(c(=O)oc3c2C)CN(C(=O)c2ccc(C(=O)NS(=O)(=O)N(C)C)c(N3CCCC3)c2)CC4)CCN1C [Example 20, (R)-N-(N,N-dimethylsulfamoyl)-4-(8-(3-(methoxymethyl)-4-methylpiperazin-1-yl)-7,10-dimethyl-5-oxo-1,3,4,5-tetrahydro-2H-chromeno[3,4-c]pyridine-3-carbonyl)-2-(pyrrolidin-1-yl)benzamide] | 2000 to 20000 | 1 to 10 | 1 to 10 | G (^ 3 to 9.0) | – | – | – | – | – |
| COC[C@H]1CN(c2cc(C)c3c4c(c(=O)oc3c2C)CN(C(=O)c2ccc(C(=O)NS(=O)(=O)N(C)C(C)C)c(OC3CCCC3)c2F)CC4)CCN1C [Example 24, (R)-2-(cyclopentyloxy)-3-fluoro-N-(N-isopropyl-N-methylsulfamoyl)-4-(8-(3-(methoxymethyl)-4-methylpiperazin-1-yl)-7,10-dimethyl-5-oxo-1,3,4,5-tetrahydro-2H-chromeno[3,4-c]pyridine-3-carbonyl)benzamide] | 20000 to 100000 | 1 to 10 | 1 to 10 | F (<3) | – | – | – | – | – |
| COC[C@H]1CN(c2cc(C)c3c4c(c(=O)oc3c2C)CN(C(=O)c2ccc(C(=O)NS(=O)(=O)N(C)C(C)C)c(OC3CCC3)c2F)CC4)CCN1C [Example 25, (R)-2-cyclobutoxy-3-fluoro-N-(N-isopropyl-N-methylsulfamoyl)-4-(8-(3-(methoxymethyl)-4-methylpiperazin-1-yl)-7,10-dimethyl-5-oxo-1,3,4,5-tetrahydro-2H-chromeno[3,4-c]pyridine-3-carbonyl)benzamide] | 20000 to 100000 | 1 to 10 | 1 to 10 | F (<3) | – | – | – | – | – |
| COC[C@H]1CN(c2cc(C)c3c4c(c(=O)oc3c2C)CN(C(=O)c2ccc(C(=O)NS(=O)(=O)C3(C)CC3)c(N3CCCC3)c2)CC4)CCN1C [Example 45, (R)-4-(8-(3-(methoxymethyl)-4-methylpiperazin-1-yl)-7,10-dimethyl-5-oxo-1,3,4,5-tetrahydro-2H-chromeno[3,4-c]pyridine-3-carbonyl)-N-((1-methylcyclopropyl)sulfonyl)-2-(pyrrolidin-1-yl)benzamide] | 20000 to 100000 | 10 to 100 | 1 to 10 | H (>9.0 to 30) | – | – | – | – | – |
| COC[C@H]1CN(c2cc(C)c3c4c(c(=O)oc3c2C)CN(C(=O)c2cc(OC)c(C(=O)NS(=O)(=O)N3CCCC3)cc2Cl)CC4)CCN1C [Example 329, (R)-5-chloro-2-methoxy-4-(8-(3-(methoxymethyl)-4-methylpiperazin-1-yl)-7,10-dimethyl-5-oxo-1,3,4,5-tetrahydro-2H-chromeno[3,4-c]pyridine-3-carbonyl)-N-(pyrrolidin-1-ylsulfonyl)benzamide] | – | 1000 to 5000 | 1 to 10 | J (>30) | 100 to 1000 | – | – | – | – |
| CCOc1cc(C(=O)N2CCc3c(c(=O)oc4c(C)c(N5CCN(C)[C@@H](COC)C5)cc(C)c34)C2)c(Cl)cc1C(=O)NS(=O)(=O)N1CCCC1 [Example 330, (R)-5-chloro-2-ethoxy-4-(8-(3-(methoxymethyl)-4-methylpiperazin-1-yl)-7,10-dimethyl-5-oxo-1,3,4,5-tetrahydro-2H-chromeno[3,4-c]pyridine-3-carbonyl)-N-(pyrrolidin-1-ylsulfonyl)benzamide] | – | 100 to 1000 | 10 to 100 | J (>30) | 100 to 1000 | – | – | – | – |
| COC[C@H]1CN(c2cc(C)c3c4c(c(=O)oc3c2C)CN(C(=O)c2cc(OC3CC3)c(C(=O)NS(=O)(=O)N3C5CCC3CC5)cc2F)CC4)CCN1C [Example 331, (R)-N-((7-azabicyclo[2.2.1]heptan-7-yl)sulfonyl)-2-cyclopropoxy-5-fluoro-4-(8-(3-(methoxymethyl)-4-methylpiperazin-1-yl)-7,10-dimethyl-5-oxo-1,3,4,5-tetrahydro-2H-chromeno[3,4-c]pyridine-3-carbonyl)benzamide] | – | 100 to 1000 | 1 to 10 | J (>30) | 30 to 100 | – | – | – | – |
| Cc1c(N2CCN(C)[C@@H](C)C2)ccc2c3c(c(=O)oc12)CN(C(=O)c1ccc(NS(C)(=O)=O)c(OC(F)(F)F)c1)CC3 [Reference Example 1, reference compound] | < 2000 | 100 to 1000 | – | – | – | < 2000 | 410 | 10 to 100 | 45 |

Source: US12662489B2 (Sitryx Therapeutics Limited, priority 2023, dated 2026)
